These results are taken from patent US10400006B2, “Estrogen receptor modulators” (THE REGENTS OF THE UNIVERSITY OF CALIFORNIA, priority 2014, dated 2019).

Each structure is given as a SMILES string. Entries after “also recorded” stand apart in the source; their conditions may differ.

The conditions of series [1]: clinic; cited from earlier work.
The subject of series [2] is MAPK, ERK-1 (p44) and ERK-2 (p42). Put plainly: Estrogen-induced phosphorylation of MAPK in MCF-7 parental cells, Western blot. It is filed as cell-based, human. Particulars: for E2-induced rapid phosphorylation of ERK-1 and ERK-2 after pre-incubation: 1000 nM, in presence of estradiol (E2). As for the experimental part:
ERD inhibition of phosphorylation of MAPK, at both extracellular signal-regulated kinases ERK-1 (p44) and ERK-2 (p42) and downstream effects. […] Thus, we measured estrogen-induced phosphorylation of MAPK by established methods (9,15,16). Briefly, MCF-7 parental cells were estrogen deprived for 48 hrs, then treated with 1 nM estradiol-17β in the presence of new compounds (10 nM-10 μM) to be tested for antagonist activity. After treatments, cell lysates were separated by SDS-PAGE followed by Western blot using a polyclonal antibody directed to phospho-p44/p42 MAP kinase (Thr202/Tyr204) (Cell Signaling). Immunodetection with antibody against total p44/p42 (Cell Signaling) was done as a control for gel loading. […] E2 but not vehicle (CN) induced rapid phosphorylation of ERK-1 (p44) and ERK-2 (p42). This activation was prevented when cells were pre-incubated with 1000 nM ICI 182,780 (ICI; Faslodex) or 1000 nM compound S15 in the presence of estradiol (E2).

The subject of the next series is MCF-7 parental cells. Particulars: xenografts in nude mice; cited from earlier work.
The subject of another series is MCF-7/HER-2 cells. Particulars: xenografts in nude mice; cited from earlier work.
A further series relates to ER+ early breast cancer. Particulars: cited from earlier work.
Another series has as its target T1, estrogen receptor-alpha (Homo sapiens, UniProt P03372).
T1 construct: MCF-7 breast cancer cells with high expression of ERα protein were treated with estradiol-17β; endogenous in cells; host or cells: MCF-7 human breast cancer cells
T1 sequence (P03372 1-595): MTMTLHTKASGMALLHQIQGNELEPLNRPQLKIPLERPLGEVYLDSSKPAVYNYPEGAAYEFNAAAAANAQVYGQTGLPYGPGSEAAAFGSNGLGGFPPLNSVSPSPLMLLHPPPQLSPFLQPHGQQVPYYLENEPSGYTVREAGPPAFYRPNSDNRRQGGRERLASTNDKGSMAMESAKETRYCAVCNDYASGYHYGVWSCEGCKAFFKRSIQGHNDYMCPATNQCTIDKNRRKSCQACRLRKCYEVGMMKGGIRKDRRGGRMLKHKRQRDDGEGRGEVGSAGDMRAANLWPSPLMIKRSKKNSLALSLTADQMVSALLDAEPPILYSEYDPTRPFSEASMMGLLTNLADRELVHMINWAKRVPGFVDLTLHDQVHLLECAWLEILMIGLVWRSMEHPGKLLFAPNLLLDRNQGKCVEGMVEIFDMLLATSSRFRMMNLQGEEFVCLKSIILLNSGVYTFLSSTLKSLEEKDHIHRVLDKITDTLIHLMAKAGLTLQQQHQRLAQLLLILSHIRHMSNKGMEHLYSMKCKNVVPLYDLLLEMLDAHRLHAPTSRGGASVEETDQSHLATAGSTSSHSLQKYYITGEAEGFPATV
Nature of the series: Western immunoblot of ERα protein levels in MCF-7 cells after 48 hrs. It is filed as cell-based. Conditions: 1 μM or 10 μM, in presence of 1 nM estradiol-17β. Background: A western blot detects proteins with antibodies after separation by electrophoresis.

Series [3] deals with human MCF-7 breast cancer cells. Put plainly: MCF-7 cell proliferation, BrdU ELISA, in presence of 1 nM estradiol-17β. It is filed as cell-based. Conditions: for inhibition of MCF-7 cell proliferation/survival: 1 μM or 50 μM, in presence of 1 nM estradiol-17β, 72 hr; for effectiveness compared with fulvestrant in MCF-7 proliferation: same doses in vitro (1 μM or 50 μM). How it is done: In experiments to assess potential proliferative effects of novel estrogen receptor ligands, human breast cancer cells were grown in phenol red-free, estrogen-free media with 1% dextran-coated charcoal-treated (DCC)-fetal bovine serum (FBS) for 48 hrs (15,44), then treated with either 1 μM or 50 μM doses of estrogen receptor antagonists in the presence of 1 nM estradiol-17β. Cell counts and viability tests (Trypan blue) were done every 24 hr for 3 days. After 72 hr, proliferation was assessed using the BrdU Cell proliferation ELISA (Roche). Cell numbers were also assessed initially by cell counts to confirm ELISA data. Each antiestrogen was tested at least in three different experiments.
In order to assess the antitumor action of novel estrogen receptor antagonists, we cultured human MCF-7 breast cancer cells with known expression of ERα. […] Cell proliferation is expressed as percentage of that determined in the 1 nM estradiol-17β-treated control group.
(In general: Incorporation of labelled thymidine or its analogues reports DNA synthesis.)

The test system of series [4] is human non-small cell lung cancer cells A549. Nature of the series: A549 non-small cell lung cancer cell proliferation, MTS assay. It is filed as cell-based. Conditions: 1 μM or 10 μM, 72 hours, compared with fulvestrant. As for the experimental part: Cell counts and viability tests (Trypan blue) were done every 24 hours for 3 days. After 72 hours, proliferation was assessed using the CellTiter 96™ AQueous One Solution Cell Proliferation Assay (MTS) from Promega. Cell numbers were also assessed initially by cell counts to confirm ELISA data. Each antiestrogen was tested in at least in three independent experiments.

The target of a further series is T2, estrogen receptor (Homo sapiens, UniProt P03372).
T2 construct: endogenous in cells; host or cells: MCF-7 parental breast cancer cells
T2 sequence (P03372 1-595): T1 sequence (P03372 1-595)
Nature of the series: Specific [3H]estradiol-17β binding in MCF-7 parental cells. Conditions: 10 μM compound, 2 nM [3H]estradiol-17β. How it is done:
Specific estradiol binding: Specific estradiol-17β (E2) binding was assessed in MCF-7 parental breast cancer cells as before (14-16). Briefly, cells were incubated with 2 nM [^3H]estradiol-17β and varying concentrations (1 nM-10 μM) of new estrogen receptor downregulator (ERD) analogues. The efficiency of the binding of compounds was measured by the loss of radioactivity of the [^3H]estradiol-17β. A 100-fold molar excess of unlabeled E2 was present with [3H]estradiol-17β in paired samples for determination of displaceable binding. […] Compounds S1-S14 are test compounds different from the exemplified compounds described herein.

The target in a further series is T3, ER protein (Homo sapiens, UniProt P03372).
T3 construct: endogenous in cells; host or cells: MCF-7 breast tumor cells
T3 sequence (P03372 1-595): T1 sequence (P03372 1-595)
Nature of the series: ER down-regulation, Western immunoblot of ER (66 kD) in MCF-7 cells. It is filed as cell-based. Conditions: 24 hours, 10, 100 and 1000 nM. An excerpt:
ER down-regulation: To determine if selected compounds can down-regulate ER protein, we treated cells for 24-48 hrs in vitro with candidate compounds at varying doses. Then, cells were disrupted and prepared for PAGE and Western immunoblots using anti-ERα antibodies (see FIG. 6). […] Those ERDs with optimal activity in down-regulating ER were investigated further in the chemistry laboratory to further refine and develop such agents.

`C[C@]12CC[C@@H]3c4ccc(O)cc4C[C@@H](CCCCCCCCC[S+]([O-])CCCC(F)(F)C(F)(F)F)[C@H]3[C@@H]1CC[C@@H]2O` (stereo partly drawn) [fulvestrant]: the bioavailability result in [1] is listed as “very low bioavailability; also recorded: low bioavailability”. Also, in series [2], the “E2-induced rapid phosphorylation of ERK-1 and ERK-2 after pre-incubation” value is given as “prevented”. The “growth of parent MCF-7 tumors” value in the series on MCF-7 parental cells was “suppressed”. Further, the “sensitivity of MCF-7/HER-2 tumors” value in the series with MCF-7/HER-2 cells is “partially sensitive”.
Take `CC/C(=C(\c1ccccc1)c1ccc(OCCN(C)C)cc1)c1ccccc1` [tamoxifen]: in the series with ER+ early breast cancer, the “reduction in disease recurrence” value is 39% and the reduction in mortality is listed as 31%. In addition, the “growth of parent MCF-7 tumors” value in the series with MCF-7 parental cells was “suppressed”. For the same compound, in the series with MCF-7/HER-2 cells, the “sensitivity of MCF-7/HER-2 tumors” value is listed as “insensitive”.
For the compound `C[C@]12C[C@H](Oc3ccc(N)c(C(F)(F)F)c3)[C@@H]3c4ccc(O)cc4CC[C@H]3[C@@H]1CC[C@@H]2O` [JD128, (8S,9S,11S,13S,14S,17S)-11-(4-Amino-3-(trifluoromethyl)phenoxy)-13-methyl-7,8,9,11,12,13,14,15,16,17-decahydro-6H-cyclopenta[a]phenanthrene-3,17-diol], at estrogen receptor-alpha, the “ERα protein expression in MCF-7 cells” value is on record as “greatest effect at suppressing estrogen receptor-alpha expression”. Also, in [3], the “inhibition of MCF-7 cell proliferation/survival” value is “significant inhibition” and the “effectiveness compared with fulvestrant in MCF-7 proliferation” value is reported as “more effective than the ER-downregulator fulvestrant”.
`C[C@]12C[C@H](Oc3ccc(NC(=O)CCCCN4CCCCC4)c(F)c3)[C@@H]3c4ccc(O)cc4CC[C@H]3[C@@H]1CC[C@@H]2O` [JD140, N-(4-(((8S,9S,11S,13S,14S,17S)-3,17-Dihydroxy-13-methyl-7,8,9,11,12,13,14,15,16,17-deca-hydro-6H-cyclopenta[a]phenanthren-11-yl)oxy)-2-fluorophenyl)-5-(piperidin-1-yl)pentan-amide]: in series [4], the “antiproliferative effects in A549 cells” value is on record as “significant antiproliferative effects”. Moreover, the “ERα protein expression in MCF-7 cells” value on estrogen receptor-alpha was “down-regulated”. Also, in series [3], the “inhibition of MCF-7 cell proliferation/survival” value is given as “significant inhibition” and the “effectiveness compared with fulvestrant in MCF-7 proliferation” value is “more effective than the ER-downregulator fulvestrant”.
Take `C[C@]12C[C@H](Oc3ccc(N)cc3)[C@@H]3c4ccc(O)cc4CC[C@H]3[C@@H]1CC[C@@H]2O` [JD105, (8S,9S,11S,13S,14S,17S)-11l-(4-aminophenoxy)-13-methyl-7,8,9,11,12,13,14,15,16,17-decahydro-6H-cyclopenta[a]phenanthrene-3,17-diol]: in series [2] (1 nM estradiol-17β), the “inhibition of estrogen-induced phosphorylation of MAPK (ERK-1 p44 and ERK-2 p42)” value is given as “inhibits phosphorylation of MAPK”. Besides, in [2], the “E2-induced rapid phosphorylation of ERK-1 and ERK-2 after pre-incubation” value is given as “prevented”. Besides, the “effectiveness compared with fulvestrant in inhibiting estrogen-induced MAPK phosphorylation” value in series [2] (breast tumor cells in vitro) is “as effective as fulvestrant”. The “suppression of specific binding of [3H]estradiol-17β” value was “suppressed” on estrogen receptor and “suppressed effectively” at estrogen receptor (listed as S15). Besides, the “ER protein levels in MCF-7 cells” value on ER protein was “reduces ER protein levels”.
